Usually fraction unbound stands for free concentration divided by total concentration. A high value points to much free substance. What is called logD is the decadic logarithm of the distribution of all forms, ionised or not, between an organic phase and buffer at a given pH. A low value points to a more hydrophilic compound. What is called solubility (thermodynamic) is solubility found after equilibrating the solid with the medium. By microsomal CLint is commonly meant the rate of metabolic loss divided by the concentration. Low values mean slow turnover, high ones rapid turnover.

Series [1] can be described thus: in vitro. The settings on record: human, plasma.
Series [2] can be described thus: physchem. Conditions: octan-1-ol/water.
Series [3] in a line: physchem. Conditions: pH 7.4 buffer.
Series [4] can be described thus: in vitro. The settings on record: human, liver microsomes. A general note: Microsomes from liver hold many membrane-bound enzymes, among them those of drug oxidation.

≈ marks a conversion by molar mass, not a printed value. Non-standard residues stand in square brackets, D forms with d. Residues, ends and D or L forms follow the SMILES beside them. Dip = N[C@H](C(=O)O)C(c1ccccc1)c1ccccc1; Chg = N[C@H](C(=O)O)C1CCCCC1; NMeA = CN[C@@H](C)C(=O)O

`Cc1[nH]c(/C=C2\C(=O)Nc3ccc(F)cc32)c(C)c1C(=O)NCCN(C)C`: the fraction unbound at 5 h in series [1] (PPB) is 0.173. In series [2] (pH 7.4, LogD7.4), this compound had a logD of 1.75. As to `Cc1cc(Nc2nc(N[C@@H](C)c3ncc(F)cn3)ncc2F)n[nH]1`, the fraction unbound at 5 h in series [1] (PPB) is 0.471. This compound displayed a logD in series [2] (pH 7.4, LogD7.4) of 1.79. The matching figures for `Cc1cc(Nc2nc(N[C@@H](C)c3ncc(F)cn3)ncc2C)n[nH]1`: 0.28 and 1.75. Compound `Cc1ccc(CO)cc1N(C)c1ccnc(Nc2cc(N3CCCOCC3)cc(N3CCOCC3)c2)n1` registered a solubility (thermodynamic) in series [3] of 91.2 µM (≈ 46 µg/mL). The compound also had a fraction unbound at 5 h in series [1] (PPB) of 0.0556. Also, the pH-dependent lipophilicity (logD) in series [2] (pH 7.4, LogD7.4) came to 3.3.

For the compound `O=C(O)COc1ccc(Br)cc1-c1ccccc1`, the microsomal CLint in series [4] was under 3 µL/min/mg.

For the compound `Cc1c(Sc2ccc(Cl)cc2)c2cccc(Cl)c2n1CC(=O)O`, the microsomal CLint in series [4] is under 3 µL/min/mg.

In turn, `Cc1c(Sc2ccc(Cl)cc2)c2c(-c3ccccc3)cccc2n1CC(=O)O` showed a microsomal CLint in series [4] of under 3 µL/min/mg.

As to `COc1ccc(Sc2c(C)n(CC(=O)O)c3ccc(C)cc23)cc1`, the microsomal CLint in series [4] is under 3 µL/min/mg. In series [3], `Cc1ccc(NC(=O)c2ccc(C#N)cc2)cc1-n1cnc2ccc(N3CCN(C)CC3)cc2c1=O` had a solubility (thermodynamic) of 32.4 µM (≈ 15.5 µg/mL). The compound also had a fraction unbound at 5 h in series [1] (PPB) of 0.319. Besides, in series [2] (pH 7.4, LogD7.4), the pH-dependent lipophilicity (logD) was 2.73. `Cc1ccc(NC(=O)c2ccno2)cc1-n1cnc2ccc(N3CCN(C)CC3)cc2c1=O` came in with a microsomal CLint in series [4] of under 3 µL/min/mg. For the compound `Cc1ccc(NC(=O)c2cscn2)cc1-n1cnc2ccc(N3CCN(C)CC3)cc2c1=O`, the microsomal CLint in series [4] is under 3 µL/min/mg. Turning to `Cc1ccc(CCNC(=O)c2ccc3sc(CO)nc3c2)cc1`, in series [3], the solubility (thermodynamic) amounted to 16.2 µM (≈ 5.29 µg/mL). The fraction unbound at 5 h in series [1] (PPB) was 0.0293. Compound `Cc1c(CC(=O)O)c2cc(F)ccc2n1Cc1nc2ccccc2s1` displayed a microsomal CLint in series [4] of under 3 µL/min/mg. In series [3], `CC(C)Cn1c(=O)n(C)c(=O)c2c(C(=O)N3CC[C@@H](O)C3)c(Cc3ccnc4ccc(F)cc34)sc21` came in with a solubility (thermodynamic) of 871 µM (≈ 445 µg/mL). For the same compound, in series [1] (PPB), the fraction unbound at 5 h is 0.46. Also, the logD in series [2] (pH 7.4, LogD7.4) was determined as 1.95.

For the compound `COCC[C@H](Oc1ncnc2c1cnn2-c1ccccc1Cl)C(=O)Nc1ccc(C)cn1`, in series [3], the thermodynamic solubility stood at 100 µM (≈ 45.3 µg/mL). The compound also had a fraction unbound at 5 h in series [1] (PPB) of 0.0457. The compound further showed a logD in series [2] (pH 7.4, LogD7.4) of 3.6. In turn, `Cc1c(Cl)ccc(OC2CCN(C[C@H](O)CNC(=O)c3c[nH]c(=O)c4ccc(S(C)(=O)=O)cc34)CC2)c1Cl` yielded a microsomal CLint in series [4] of under 3 µL/min/mg.

In the case of `CCc1nc2c(N)nc3ccccc3c2n1CC(C)(C)O`, the microsomal CLint in series [4] was under 3 µL/min/mg. On to `C[C@H](CO)Nc1nc(SCc2cccc(F)c2F)nc2nc(NS(C)(=O)=O)sc12`, for which the thermodynamic solubility in series [3] worked out at 832 µM (≈ 384 µg/mL). This compound had a fraction unbound at 5 h in series [1] (PPB) of 0.0114. In series [2] (pH 7.4, LogD7.4), this compound gave a logD of 0.92. The matching figures for `CCC(=O)N1CCN(C(=O)c2cc(Cc3n[nH]c(=O)c4ccccc34)ccc2F)CC1`: 251 µM (≈ 106 µg/mL), 0.371 and 1.22. For the compound `O=C(CC12CC3CC(CC(C3)C1)C2)Nc1cccc2nc(NCCNCCO)ccc12`, the fraction unbound at 5 h in series [1] (PPB) is 0.0457. Further, the logD in series [2] (pH 7.4, LogD7.4) turned out to be 1.79.

As to `CN[C@@H](C)C(=O)N[C@H](C(=O)N1CCC[C@H]1C(=O)N[C@H](C(=O)OC)C(c1ccccc1)c1ccccc1)C1CCCCC1` (H-[NMeA][Chg]P[Dip]-OMe), the fraction unbound at 5 h in series [1] (PPB) is 0.176. The logD in series [2] (pH 7.4, LogD7.4) stood at 2.42. The like results for `CC(C(=O)O)c1ccc2oc(-c3ccc(Cl)cc3)nc2c1` (centres undefined) [BENOXAPROFEN] were, in that order, 0.0024 and 1.3.

In series [1] (PPB), `Cc1c(N)cccc1Cn1ccc(OCCc2cccs2)cc1=O` [CG-400549] had a free fraction (fraction unbound) at 5 h of 0.0499. For the same compound, in series [2] (pH 7.4, LogD7.4), the logD came to 2.78.

In turn, `CNC1=Nc2ccc(Cl)cc2C(c2ccccc2)=[N+]([O-])C1` [CHLORDIAZEPOXIDE] showed a fraction unbound at 5 h in series [1] of 0.0229. The same compound came in with a logD in series [2] (pH 7.4) of 2.41. The compound `CN(C)CCCN1c2ccccc2CCc2ccc(Cl)cc21` [CLOMIPRAMINE] gave a fraction unbound at 5 h in series [1] (PPB) of 0.0374. This compound also yielded a logD in series [2] (pH 7.4, LogD7.4) of 3.36. Regarding `CCc1nc2c(N)nc3ccccc3c2n1CCCCNS(C)(=O)=O` [CPG-52852], the solubility (thermodynamic) in series [3] was determined as 537 µM (≈ 194 µg/mL). In addition, in series [1] (PPB), the fraction unbound at 5 h is 0.334. Moreover, the logD in series [2] (pH 7.4, LogD7.4) was found to be 1.24. The compound `O=C(NO)C1(CS(=O)(=O)c2ccc(Oc3ccc(Cl)cc3)cc2)CCOCC1` [CTS-1027] displayed a thermodynamic solubility in series [3] of 126 µM (≈ 53.6 µg/mL). The fraction unbound at 5 h in series [1] (PPB) is 0.02. On to `CC(C)N(CCC(C(N)=O)(c1ccccc1)c1ccccn1)C(C)C` (centres undefined) [DISOPYRAMIDE], for which the fraction unbound at 5 h in series [1] was 0.666. Moreover, the logD in series [2] (pH 7.4) was -0.54.

As for `C[C@]12N[C@H](Cc3ccccc31)c1ccccc12` [DIZOCILPINE], the fraction unbound at 5 h in series [1] was 0.529. In series [2] (pH 7.4), this compound came in with a logD of 1.6. For the compound `CS(=O)(=O)c1ccc([C@@H](O)[C@@H](CF)NC(=O)C(Cl)Cl)cc1` [FLORFENICOL], the fraction unbound at 5 h in series [1] is 0.676. Further, the logD in series [2] (pH 7.4) stood at 0.44. In series [1], `CCOC(=O)c1ncn2c1CN(C)C(=O)c1cc(F)ccc1-2` [FLUMAZENIL] showed a free fraction (fraction unbound) at 5 h of 0.443. In series [2] (pH 7.4), this compound had a log distribution coefficient (logD) of 1.1. In series [1] (PPB), `O=C1OC2(c3ccc(O)cc3Oc3cc(O)ccc32)c2ccccc21` [FLUORESCEIN] gave a fraction unbound at 5 h of 0.19. Further, the logD in series [2] (pH 7.4, LogD7.4) was 0. As for `COC(=O)[C@H]1[C@@H](c2ccc(I)cc2)C[C@@H]2CC[C@H]1N2CCCF` [IOFLUPANE], the fraction unbound at 5 h in series [1] is 0.201. This compound also showed a logD in series [2] (pH 7.4) of 2.3. Compound `Nc1nc(Nc2ccc(S(N)(=O)=O)cc2)nn1C(=O)c1c(F)cccc1F` [JNJ-7706621] showed a fraction unbound at 5 h in series [1] (PPB) of 0.19. In series [2] (pH 7.4, LogD7.4), this compound gave a logD of 1.87. Compound `CC(=O)N1CCN(c2ccc(OCC3COC(Cn4ccnc4)(c4ccc(Cl)cc4Cl)O3)cc2)CC1` (centres undefined) [KETOCONAZOLE] registered a solubility (thermodynamic) in series [3] of 6.2 µM (≈ 3.29 µg/mL). In series [1], this compound showed a fraction unbound at 5 h of 0.028. Compound `Cc1c(OCC(F)(F)F)ccnc1C[S+]([O-])c1nc2ccccc2[nH]1` (centres undefined) [LANSOPRAZOLE] had a fraction unbound at 5 h in series [1] of 0.016. Moreover, the logD in series [2] (pH 7.4) amounted to 2.7. `COc1c2occc2cc2ccc(=O)oc12` [METHOXSALEN] gave a fraction unbound at 5 h in series [1] (PPB) of 0.0768. Further, the logD in series [2] (pH 7.4, LogD7.4) was determined as 1.97.

`CC(C)(C(=O)c1cccnc1)c1cccnc1` [METYRAPONE] showed a fraction unbound at 5 h in series [1] (PPB) of 0.888. Also, in series [2] (pH 7.4, LogD7.4), the logD is 1.45.

`Clc1ccc(C(c2ccccc2)N2CCNCC2)cc1` (centres undefined) [NORCHLORCYCLIZINE] had a fraction unbound at 5 h in series [1] (PPB) of 0.0581. In series [2] (pH 7.4, LogD7.4), the logD is 1.94. In series [1] (PPB), `C1CCC(C(CC2CCCCN2)C2CCCCC2)CC1` (centres undefined) [PERHEXILINE] showed a fraction unbound at 5 h of 0.0156. Besides, the logD in series [2] (pH 7.4, LogD7.4) stood at 3.02. The matching figures for `CN(C)CCCN1c2ccccc2Sc2ccccc21` [PROMAZINE]: 0.101 and 2.56.

In the case of `CN(CCOc1ccc(CC2SC(=O)NC2=O)cc1)c1ccccn1` (centres undefined) [ROSIGLITAZONE], the thermodynamic solubility in series [3] came out at 28.2 µM (≈ 10.1 µg/mL). The compound also showed a fraction unbound at 5 h in series [1] (PPB) of 0.0026. The same compound displayed a logD in series [2] (pH 7.4, LogD7.4) of 2.5. In series [1] (PPB), `CCN(CC)CCNC(=O)c1c(C)[nH]c(/C=C2\C(=O)Nc3ccc(Cl)cc32)c1C` [SU-11652] gave a fraction unbound at 5 h of 0.105. The compound further yielded a pH-dependent lipophilicity (logD) in series [2] (pH 7.4, LogD7.4) of 2.75. `COc1cc2nc(N3CCN(C(=O)C4CCCO4)CC3)nc(N)c2cc1OC` (centres undefined) [TERAZOSIN] had a fraction unbound at 5 h in series [1] (PPB) of 0.204. The logD in series [2] (pH 7.4, LogD7.4) came to 0.9. `COc1ccc(C(CN(C)C)C2(O)CCCCC2)cc1` (centres undefined) [VENLAFAXINE]: in series [1], the fraction unbound at 5 h is 0.814. For the same compound, the logD in series [2] (pH 7.4) came out at 0.99.
